This is an account of results in US6509325B1, “Method for inhibiting melanogenesis and uses thereof” (priority 2000, dated 2003).

Molecules are shown by their SMILES.

Test [1] deals with C. neoformans strain 24067. In words: Survival of BALB/c mice infected with C. neoformans. In kind it is in vivo. Conditions: for survival advantage: oral. The procedure:
(§1) Cryptococcus neoformans cells were collected as described above. BALB/c mice (National Cancer Institute (NCI), Bethesda, Md.), 6-8 weeks old, were injected intravenously (i.v.) by the tail veins with 1×10^6 organisms. […] In experiment A, uninfected control mice were injected with glyphosate at the same time intervals. […] Forty-four days after infection, the A/J Cr mice were killed, and the lungs were isolated and homogenized in 5 ml of PBS. 100 μl of 1/100 and 1/1000 dilutions of the homogenates in PBS were then plated on Sab agar. Colony-forming units (CFUs) were determined after incubation of the plates at 30° C. for 48 h (1 colony=1 CFU). […] Control mice were injected with PBS instead of glyphosate.
Data analysis was performed using SPSS version 8. Student's T-test and Kaplan-Meier survival analysis were utilized.

The test system of test [2] is Cryptococcus neoformans serotype D strain 24067. In words: Glyphosate inhibition of C. neoformans growth (turbidity, 96-well plates). In kind it is cell-based. Conditions: after 72 h of incubation, 30° C., Sab, visual turbidity. The procedure: Cryptococcus neoformans serotype D strain 24067 was obtained from the American Type Culture Collection (Rockville, Md.), and grown overnight at 30° C. with shaking in Sabouraud dextrose media (Sab) obtained from Difco Laboratories (Detroit, Mich.). Cells were collected and washed three times with phosphate-buffered saline (PBS: 0.137 M NaCl and 0.003 M sodium phosphate; pH 7.4). A suspension of 250 organisms per 1 ml of Sab was made. Glyphosate was obtained from the Sigma Chemical Co. (St. Louis, Mo.). […] Each concentration was tested in triplicate. The plates were incubated at 30° C., and growth was assayed visually for turbidity after 72 h.

Test [3] concerns autopolymerization of L-dopa to melanin. In words: Autopolymerization of L-dopa to melanin (spectrophotometry). The procedure:
In solution, L-dopa slowly autopolymerizes to form melanin [20]. […] The samples were left on the benchtop at room temperature. An Ultraspec 2000 spectrophotometer (Pharmacia Biotech, Cambridge, England) was used to assess absorption at 270λ after 3 days and 20 days. […] A freshly-prepared solution of the same concentrations was tested for comparison.

Test [4] relates to melanization in C. neoformans. As to the kind of experiment: Effect of sub-inhibitory glyphosate on melanization of C. neoformans cultures with L-dopa. Type of test: cell-based, Cryptococcus neoformans. Conditions: 1 mM L-dopa; for Melanization: control without glyphosate day 7. As for the experimental part: Positive melanin controls were cultures containing L-dopa without glyphosate; negative controls were cultures lacking both L-dopa and glyphosate. All cultures were grown in duplicate. The cultures were examined visually for melanization. The growth rate of the cells in each culture was determined by counting, with a hemocytometer, the number of cells per ml at various times after the initiation of the culture.

The subject of another test is C. neoformans. In words: Lung CFUs in A/J Cr mice infected with C. neoformans. Conditions: 1 mg glyphosate i.p. at 24, 48, 72 h, 44 days after infection, n=13, controls 9.63±0.21, p=0.004. In kind it is in vivo. As for the experimental part: as §1

With `O=C(O)CNCP(=O)(O)O` [glyphosate, N-phosphonomethylglycine], in test [1] (0.75 mg/day glyphosate i.p. protocol, control 20.4±1.31 days, p=0.049), the Mean survival turned out to be 26.8 ± 3.55 days. Further, the “Mean survival time and standard deviation by Kaplan-Meier analysis” value in test [1] (1.5 mg/day glyphosate i.p. for three days, control 15.9±1.57 days, p=0.001) worked out at 25.7 ± 2.36 days. Moreover, the survival advantage result in test [1] (ad lib water containing 2 mg/ml glyphosate) and in test [1] (ad lib water containing 10 mg/ml glyphosate) was “no survival advantage” each time. The “concentrations of glyphosate at which growth inhibition was observed” value in test [2] is more than 250 µg/mL. Moreover, the “concentrations of glyphosate at which no growth inhibition was observed” value in test [2] is less than 250 µg/mL. In addition, the absorption value in test [3] (0.12 μg/ml glyphosate, 1 mM L-dopa, day 3, 270λ, control without compound 0.425) stood at 0.359. Further, the “concentration of glyphosate at which an absorption signal could be detected” value in test [3] (day 3, 1 mM L-dopa, room temperature, 270λ) worked out at 39 µg/mL. Also, in test [3] (day 20, 1 mM L-dopa, room temperature), the “concentrations of glyphosate that continued to inhibit melanin formation” value is not below 31.3 µg/mL. For the same compound, the “Melanization” value amounted to 10 days in test [4] (62.5 μg/ml glyphosate), 13 days in test [4] (125 μg/ml glyphosate) and 15 days in test [4] (250 μg/ml glyphosate). Moreover, in test [4] (grown 10 days in minimal media, 62.5 μg/ml glyphosate), the “melanization state of culture” value was “heavily melanized”. In addition, in the test with C. neoformans, the “Log10 CFUs from lung homogenates” value was determined as 8.62±1.12.
